{"source": "patent US4619925A", "about": "“3-Propenyl cephalosporin derivatives” (priority 1985, dated 1986)", "key": {"[1]": {"test_system": "Gp-Ib organisms (Gram-positive staphylococci resistant to penicillin)", "experiment": "In vitro activity, agar dilution, group of five strains", "type": "cell-based", "source_text": "(§1) Each of these groups of organisms is constituted of five individual strains of microorganism. The Gp-Ia organisms are Gram-positive staphylococci which are sensitive to penicillin. The Gp-Ib organisms are Gram-positive staphylococci which are resistant to penicillin and produce penicillinase. The Gn-Ia organisms are Gram-negative bacteria which are sensitive to ampicillin and cephalothin. The Gn-Ib organisms are Gram-negative bacteria which are resistant to ampicillin and cephalothin."}, "[2]": {"test_system": "Gp-Ia organisms (Gram-positive staphylococci sensitive to penicillin)", "experiment": "In vitro activity, agar dilution, group of five strains", "type": "cell-based", "source_text": "as §1"}}}
{"smiles": "C/C=C\\C1=C(C(=O)O)N2C(=O)C(NC(=O)[C@H](N)c3cccc(O)c3)[C@H]2SC1", "note": "(stereo partly shown) [BMY-28272, 7-[(D)-2-amino-2-(3-hydroxyphenyl)acetamido]-3-[(Z)-1-propenyl]-3-cephem-4-carboxylic acid]", "values": [{"measurement": "activity relative to BMY-28100", "setting": "[1]", "result": "slightly less active than BMY-28100"}, {"measurement": "activity relative to cephalexin or cefaclor", "setting": "[1]", "result": "three times more active than cephalexin or cefaclor"}, {"measurement": "activity relative to BMY-28100", "setting": "[2]", "result": "same as BMY-28100"}, {"measurement": "activity relative to cephalexin and cefaclor", "setting": "[2]", "result": "two or four times more active than cephalexin and cefaclor"}]}
